# From paper PMC10148624, “Discovery of diarylpyrimidine derivatives bearing piperazine sulfonyl as potent HIV-1 nonnucleoside reverse transcriptase inhibitors” (Communications Chemistry, 2023)
# Several values for one entry are separate records, joined by “and”; a condition that tells them apart may be missing. Identical values can stand only once. Like-named read-outs stand apart in the source and are kept apart here.
# How the values were obtained:
# [1] = test system: HIV-1 K103N/Y181C double mutant (RES056); experiment: microbe, parasite or virus in culture; format: cell-based; conditions: for EC50: Human immunodeficiency virus 1, MT4, read-out: EC50 RES056; for SI RES056: selectivity index, ratio of CC50/EC50
# Description: (§1) The biological results were determined as EC50 (anti-HIV potency), CC50 (cytotoxicity) and SI (selectivity index, the ratio of CC50/EC50). […]
# (§2) compounds were made directly in flat-bottomed 96-well microtiter trays by adding 100 μL medium to the 25 μL stock solution and transferring 25 μL of this solution to another well that contained 100 μL medium using a Biomek 3000 robot (Beckman Instruments, Fullerton, CA). Untreated control HIV- and mock-infected cell samples were included for each sample. HIV-1 WT strain (IIIB), HIV-1 drug-resistant strains including […]
# (§3) (50% cell culture infectious dose) or culture medium was added to either the infected or mock-infected wells of the microtiter tray. Mock-infected cells were used to evaluate the effect of test compounds on uninfected cells in order to assess its cytotoxicity.
# (§4) Exponentially growing MT-4 cells were centrifuged for 5 min at 1000 rpm and the supernatant was discarded.
# (§5) 50 μL volumes were transferred to the microtiter tray wells. Five days after infection, the viability of mock- and HIV-infected cells was examined spectrophotometrically by […]
# (§6) concentration of the test compound that reduced the viability of the mock-infected MT- […]
# HIV-1 WT (IIIB) = experiment: microbe, parasite or virus in culture; format: cell-based; conditions: for EC50: Human immunodeficiency virus 1, IIIB; for SI IIIB: selectivity index, ratio of CC50/EC50
# Description: as §1, §2, §3, §4, §5, §6
# in vitro = conditions: human
# Description: as §1, §2, §3, §4, §5, §6
# HIV-1 E138K = experiment: microbe, parasite or virus in culture; format: cell-based; conditions: Human immunodeficiency virus 1, MT4, read-out: EC50 E138K
# Description: as §2, §3, §4, §5, §6
# HIV-1 L100I = experiment: microbe, parasite or virus in culture; format: cell-based; conditions: Human immunodeficiency virus 1, MT4, read-out: EC50 L100I
# Description: as §2, §3, §4, §5, §6
# HIV-1 K103N = experiment: Anti-HIV-1 activity against K103N mutant strain, MTT method in MT-4 cells; format: cell-based; conditions: Human immunodeficiency virus 1, MT4, read-out: EC50 K103N
# Source text: (§7) According to the anti-HIV-1(WT) results, the promising compounds 18a(1–5), 18b(1–5) and 18c1 were chosen to further evaluate their inhibitory potency against the prevalent HIV-1 mutations, including L100I, K103N, Y181C, Y188L, E138K, and F227L/V106A. […]. page 20:
# (§8) or mock-infected wells of the microtiter tray. Mock-infected cells were used to evaluate
# (§9) supernatant was discarded.
# (§10) Five days after infection,
# (§11) 4 cells by 50%. […]
# HIV-1 Y188L = experiment: Anti-HIV-1 activity against Y188L mutant strain, MTT method in MT-4 cells; format: cell-based; conditions: Human immunodeficiency virus 1, MT4, read-out: EC50 Y188L
# Source text: as §7, §8, §9, §10, §11
# HIV-1 F227L/V106A = experiment: Anti-HIV-1 activity against F227L/V106A mutant strain, MTT method in MT-4 cells; format: cell-based; conditions: for EC50: Human immunodeficiency virus 1, MT4, read-out: EC50 F227L/V106A
# Source text: as §7, §8, §9, §10, §11
# HIV-1 Y181C = experiment: Anti-HIV-1 activity against Y181C mutant strain, MTT method in MT-4 cells; format: cell-based
# Source text: as §8, §9, §10, §11
# WT HIV-1 RT = target: T1, WT HIV-1 RT (Human immunodeficiency virus type 1 group M subtype B, UniProt P04585); experiment: biochemical; conditions: read-out: IC50 against WT HIV-1 RT; inhibition of biotin deoxyuridine triphosphate incorporation into HIV-1 IIIB RT by 50%, mean ± SD, n = 2
# T1 construct: purchased Roche
# Description: Section 4. HIV-1 RT inhibition assays
# A reverse transcriptase (RT) assay kit produced by Roche was selected for the RT inhibition assay.3 All the reagents for performing the RT reaction came with the kit and the ELSIA procedures for RT inhibition assay was carried out following the description in the kit protocol. Briefly, the reaction mixture containing template/primer complex, viral nucleotides (dNTPs) and RT in the incubation buffer with or without inhibitors was incubated for 1 h at 37 °C . After that, the reaction mixture was transferred to a streptavidine coated microtiter plate and incubated for another 1 h at 37 °C to make sure retranscriptional cDNA chain that consisted biotin labeled dNTPs bound to streptavidine. Then unbound dNTPs were removed using washing buffer and anti-DIG-POD working solution was added. After incubation for 1 h at 37 °C , the DIG-labeled dNTPs incorporated in cDNA were bound to the anti-DIG-POD antibody. The unbound
# physchem = format: physicochemical; conditions: pH 7, aqueous buffer, kinetic from dmso stock
# Description: (§12) Section 7. Water solubility measurements
# temperature overnight. The saturated solution was filtrated through a filter membrane
# UV. The sample was performed in triplicate. For quantification, a model LC-20AT
# The flow rate was 1.0 mL/min,
# and injection volume was 20 μL. Aqueous concentration was determined by
# Section 8. CYP enzyme inhibition assay
# CYP2C19 = CYP2C19 (Homo sapiens, UniProt P33261); experiment: in vitro; conditions: human, microsomes
# Source text: (§13) Section 8. CYP enzyme inhibition assay […]
# (§14) Agilent 1200 LC/MSD (Agilent, USA).
# CYP2C9 = CYP2C9 (Homo sapiens, UniProt P11712); experiment: in vitro; conditions: human, microsomes
# Source text: as §13, §14
# CYP2D6 = CYP2D6 (Homo sapiens, UniProt P10635); experiment: in vitro; conditions: human, microsomes, IC50 CYP2D6
# Description: Fig. S3 Decomposition of the binding free energy (per-residue) into contributions from electrostatic energy, vdw energy, polar solvation energy, and non-polar solvation energy. a K103N-18b1. b […]
# as §12
# Water solubility was measured in phosphate buffer at pH 7.0 by using an HPLC-UV method.17 Compounds were initially dissolved in DMSO at 10 mg/mL 10 μL of this stock solution was spiked into purified water (1 mL) with the final DMSO concentration being 1%. The mixture was ultrasonic for 2 h at room temperature and restored at room temperature overnight. The saturated solution was filtrated through a filter membrane (pore size = 0.22 μm) and transferred to other Eppendorf tubes for analysis by HPLC-UV. The sample was performed in triplicate. For quantification, a model LC-20AT HPLC-UV (SHIMADZU) system was used with an Inertsil ® ODS-SP-C18 column (150 mm × 4.6 mm, 5 μm) and MeOH/water as eluant. The flow rate was 1.0 mL/min, and injection volume was 20 μL. Aqueous concentration was determined by comparison of the peak area of the saturated solution with a standard curve plotted peak area versus known concentrations, which were prepared by solutions in MeOH at 200, […]
# as §13
# Section 9. Pharmacokinetics studies […]
# approval from the Animal Ethical and Welfare Committee (AEWC). Ten male […]
# Blood samples (200 μL of blood
# Briefly, 50 μL of plasma was […]
# tube, which was centrifuged at 3000g for 10 min. The supernatant layer was collected […]
# Standard curves for 18b1 in […]
# with an internal standard to blank plasma. Then all samples were quantified with an […]
# in vivo = conditions: male, Sprague-Dawley, rat, plasma
# Description: (§15) SpragueDawley (SD) rats (180−200 g) were randomly divided into two groups to
# (§16) receive oral administration (10 mg/kg) or intravenous (2 mg/kg). A solution of
# (§17) compound 18b1 was prepared by dissolving in a mixture of polyethylene glycol (PEG)
# (§18) 400/normal saline (70/30, V/V) before the experiment. Blood samples (200 μL of blood
# (§19) each times) of the intravenous group were collected from the sinus jugular into
# (§20) h after dosing, and blood samples (200 μL of blood each times) of the oral
# (§21) used to determine the concentration of 18b1 in plasma. Briefly, 50 μL of plasma was
# (§22) and a 20 μL aliquot was injected for LCMS/MS analysis. Standard curves for 18b1 in
# (§23) blood were generated by the addition of S10 various concentrations of 18b1 together
# [2] = In vivo pharmacokinetics in Sprague-Dawley rats; conditions: SD rat, 2.0 mg/kg i.v., mean ± SD, n = 3
# Description: as §15, §16, §17, §18, §19, §20, §21, §22, §23
# Chain of CYP2D6 (P10635 whole entry): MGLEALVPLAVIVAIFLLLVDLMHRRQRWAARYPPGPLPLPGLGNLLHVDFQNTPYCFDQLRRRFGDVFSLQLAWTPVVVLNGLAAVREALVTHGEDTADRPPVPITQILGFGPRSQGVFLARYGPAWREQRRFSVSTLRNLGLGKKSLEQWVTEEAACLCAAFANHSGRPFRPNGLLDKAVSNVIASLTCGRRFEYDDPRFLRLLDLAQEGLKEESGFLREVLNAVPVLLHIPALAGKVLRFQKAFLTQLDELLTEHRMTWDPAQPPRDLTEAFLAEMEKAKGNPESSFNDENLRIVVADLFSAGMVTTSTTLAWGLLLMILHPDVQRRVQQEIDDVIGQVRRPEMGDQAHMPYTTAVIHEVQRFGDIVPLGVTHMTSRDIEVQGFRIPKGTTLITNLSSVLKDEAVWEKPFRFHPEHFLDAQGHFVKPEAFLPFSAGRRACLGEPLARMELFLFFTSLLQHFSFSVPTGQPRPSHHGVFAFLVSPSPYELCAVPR
# Chain of CYP2C19 (P33261 whole entry): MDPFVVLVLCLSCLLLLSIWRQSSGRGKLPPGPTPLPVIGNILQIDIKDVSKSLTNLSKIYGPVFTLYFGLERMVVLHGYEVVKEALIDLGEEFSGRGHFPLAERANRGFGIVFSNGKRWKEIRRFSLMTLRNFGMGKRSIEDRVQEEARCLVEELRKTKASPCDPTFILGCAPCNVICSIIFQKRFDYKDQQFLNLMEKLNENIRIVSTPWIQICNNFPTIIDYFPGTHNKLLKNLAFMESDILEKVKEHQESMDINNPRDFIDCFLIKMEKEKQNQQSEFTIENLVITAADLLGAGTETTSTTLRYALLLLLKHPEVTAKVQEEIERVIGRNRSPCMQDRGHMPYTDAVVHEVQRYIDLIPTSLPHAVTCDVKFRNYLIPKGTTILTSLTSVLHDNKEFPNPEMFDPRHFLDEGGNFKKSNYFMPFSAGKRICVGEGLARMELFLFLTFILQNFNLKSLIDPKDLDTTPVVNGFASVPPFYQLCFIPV
# Chain of CYP2C9 (P11712 whole entry): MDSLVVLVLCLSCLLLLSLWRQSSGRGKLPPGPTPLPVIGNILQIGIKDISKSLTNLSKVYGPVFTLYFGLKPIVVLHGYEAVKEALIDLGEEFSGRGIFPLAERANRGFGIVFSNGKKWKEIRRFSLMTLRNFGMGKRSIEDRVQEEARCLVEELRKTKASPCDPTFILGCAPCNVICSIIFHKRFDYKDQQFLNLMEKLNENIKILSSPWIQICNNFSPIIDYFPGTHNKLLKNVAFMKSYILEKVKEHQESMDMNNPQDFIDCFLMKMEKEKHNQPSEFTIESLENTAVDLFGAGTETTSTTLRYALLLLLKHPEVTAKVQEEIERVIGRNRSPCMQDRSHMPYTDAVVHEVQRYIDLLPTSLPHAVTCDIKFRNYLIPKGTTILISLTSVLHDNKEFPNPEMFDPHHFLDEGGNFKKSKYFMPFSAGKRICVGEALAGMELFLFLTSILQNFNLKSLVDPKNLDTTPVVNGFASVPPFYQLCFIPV
structure (smiles),measurement,setting,value
"Cc1cn([C@H]2C[C@H](N=[N+]=[N-])[C@@H](CO)O2)c(=O)[nH]c1=O [AZT, zidovudine]",EC50,[1],37 ± 11 nM
same,SI RES056,[1],>200
same,EC50,"HIV-1 WT (IIIB); MT4, read-out: EC50 IIIB",32 ± 9.6 nM
same,SI IIIB,HIV-1 WT (IIIB),>234
same,CC50 at 5 days,in vitro,> 7480 nM
Cc1cc(/C=C/C#N)cc(C)c1Oc1ccnc(Nc2ccc(CN3CCN(S(C)(=O)=O)CC3)cc2)n1 [BH-11c],EC50,HIV-1 E138K,9.4 ± 5 nM
same,EC50,HIV-1 L100I,14 ± 5.3 nM
same,EC50,HIV-1 K103N,3.7 ± 1.6 nM
same,EC50,HIV-1 Y188L,1320 ± 220 nM
same,EC50,HIV-1 F227L/V106A,210 ± 95 nM
CCS(=O)(=O)N1CCN(c2ccc(Nc3nccc(Oc4c(C)cc(C#N)cc4C)n3)cc2C#N)CC1 [Compound 17b2],EC50,[1],> 241000 nM
same,EC50,"HIV-1 WT (IIIB); MT4, MT-4 cells, MTT method, mean ± SD, n ≥ 4, read-out: EC50 IIIB",6.6 ± 1.7 nM
same,SI IIIB,HIV-1 WT (IIIB),">36,585"
same,CC50 at 5 days,in vitro,> 241000 nM
Cc1cc(/C=C/C#N)cc(C)c1Oc1ccnc(Nc2ccc(N3CCN(S(C)(=O)=O)CC3)c(C#N)c2)n1 [Compound 18b1],EC50,[1],93 ± 19 nM
same,SI RES056,[1],110
same,EC50,"HIV-1 WT (IIIB); MT4, read-out: EC50 IIIB",1.4 ± 0.19 nM
same,SI IIIB,HIV-1 WT (IIIB),7171
same,CC50 at 5 days,in vitro,10200 ± 1820 nM
same,EC50,HIV-1 E138K,6.4 ± 0.54 nM
same,EC50,HIV-1 L100I,3.7 ± 0.62 nM
same,EC50,HIV-1 K103N,1.7 ± 0.32 nM
same,EC50,"HIV-1 Y181C; Human immunodeficiency virus 1, MT4, read-out: EC50 Y181C, MT-4 cells, MTT method, mean ± SD, n ≥ 4",6.4 ± 0.67 nM
same,fold potency enhancement over ETR,"HIV-1 Y181C; Y181C strain, ratio of EC50",2.8 fold
same,EC50,HIV-1 Y188L,740 ± 210 nM
same,fold more potent than lead compound BH-11c,"HIV-1 F227L/V106A; F227L/V106A strain, ratio of EC50",~ 20 fold
same,EC50,HIV-1 F227L/V106A,9.9 ± 1.6 nM
same,IC50,WT HIV-1 RT,93 ± 17 nM
same,solubility,physchem,13.5 ± 0.49 µg/mL
same,IC50 at 10 min,CYP2C19,8000 nM
same,IC50 at 10 min,CYP2C9,5300 nM
same,IC50 at 10 min,CYP2D6,> 10000 nM
same,AUC(0-inf),"in vivo; iv, 2 mg/kg",792 ± 74.9 ng·h/mL
same,AUC(0-t),"in vivo; iv, 2 mg/kg",785 ± 73.9 ng·h/mL
same,Cmax,"in vivo; iv, 2 mg/kg",1230 ± 96.1 ng/mL
same,Tmax,"in vivo; iv, 2 mg/kg",0.08 h
same,clearance,"in vivo; iv, 2 mg/kg",42.3 mL/min/kg
same,half-life,"in vivo; iv, 2 mg/kg",2.42 ± 0.34 h
same,bioavailability,"in vivo; oral, 10 mg/kg",1.34%
same,AUC(0-inf),"in vivo; po, 10 mg/kg",53.2 ± 8.32 ng·h/mL
same,AUC(0-t),"in vivo; po, 10 mg/kg",45.1 ± 12.9 ng·h/mL
same,Cmax,"in vivo; po, 10 mg/kg",16.1 ± 6.59 ng/mL
same,Tmax,"in vivo; po, 10 mg/kg",3.5 ± 2.78 h
same,half-life,"in vivo; po, 10 mg/kg",3.05 ± 1.44 h
same,V,[2],8.81 L/kg and 8.81 ± 0.72 L/kg
